# Changes are numbered by the printed parent chain.
# What was measured:
# [1] = biological target: AR DBD (Homo sapiens, UniProt P10275)
# [2] = biological target: T1, androgen receptor (AR) (Homo sapiens, UniProt P10275, T878A); experiment: eGFP cellular AR transcription assay (LNCaP eGFP cells, LN-ARR2PB-eGFP)
# T1 sequence (P10275 1-920 T878A): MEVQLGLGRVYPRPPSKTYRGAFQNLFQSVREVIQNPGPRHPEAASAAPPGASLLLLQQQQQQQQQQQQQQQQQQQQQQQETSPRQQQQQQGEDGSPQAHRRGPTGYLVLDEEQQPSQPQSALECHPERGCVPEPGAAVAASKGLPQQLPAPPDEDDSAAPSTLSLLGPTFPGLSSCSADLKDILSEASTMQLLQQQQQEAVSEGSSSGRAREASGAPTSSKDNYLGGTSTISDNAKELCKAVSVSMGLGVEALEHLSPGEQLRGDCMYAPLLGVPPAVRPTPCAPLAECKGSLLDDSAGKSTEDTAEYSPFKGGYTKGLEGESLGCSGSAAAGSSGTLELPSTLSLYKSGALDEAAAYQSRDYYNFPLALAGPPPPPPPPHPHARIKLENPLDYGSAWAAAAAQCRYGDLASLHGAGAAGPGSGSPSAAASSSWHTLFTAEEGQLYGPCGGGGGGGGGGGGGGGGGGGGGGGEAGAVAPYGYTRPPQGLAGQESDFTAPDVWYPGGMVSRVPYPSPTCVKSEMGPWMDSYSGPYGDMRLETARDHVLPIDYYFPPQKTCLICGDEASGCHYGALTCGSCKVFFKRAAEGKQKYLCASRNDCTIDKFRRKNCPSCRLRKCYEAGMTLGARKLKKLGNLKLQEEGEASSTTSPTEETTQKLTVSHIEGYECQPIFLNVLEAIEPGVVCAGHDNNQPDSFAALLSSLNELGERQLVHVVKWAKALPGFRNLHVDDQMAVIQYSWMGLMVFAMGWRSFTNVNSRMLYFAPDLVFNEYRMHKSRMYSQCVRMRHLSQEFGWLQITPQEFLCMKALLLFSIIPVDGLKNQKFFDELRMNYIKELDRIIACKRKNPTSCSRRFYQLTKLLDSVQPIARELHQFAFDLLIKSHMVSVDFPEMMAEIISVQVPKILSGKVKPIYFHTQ
# [3] = system: PSA; experiment: Prostate-specific antigen (PSA) assay, secreted PSA from the eGFP assay plates; format: cell-based, human; conditions: Homo sapiens
# Procedure: 3. Prostate-specific antigen (PSA) assay: The evaluation of PSA levels secreted into the media was performed in parallel to the eGFP assay using the same plates. After cells were incubated for 3 days, 150 μl of the media was taken from each well, and added to 150 μl of PBS.
# [4] = biological target: T2, AR hormone binding site (recombinant wild type LBD) (Rattus norvegicus, UniProt P15207); experiment: Androgen displacement assay (Polar Screen Androgen Receptor Competitor Green Assay Kit); conditions: fluorescence polarization
# T2 construct: displace DHT from the ABS site of recombinant wild type LBD
# T2 sequence (P15207 651-882 limits assumed): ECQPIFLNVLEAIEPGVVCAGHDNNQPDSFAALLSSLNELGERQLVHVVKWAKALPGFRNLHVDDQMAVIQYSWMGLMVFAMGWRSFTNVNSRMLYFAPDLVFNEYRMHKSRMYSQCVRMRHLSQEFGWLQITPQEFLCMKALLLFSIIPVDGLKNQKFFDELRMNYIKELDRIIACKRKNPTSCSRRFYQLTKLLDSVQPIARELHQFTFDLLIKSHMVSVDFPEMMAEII
# Procedure: 5. Androgen displacement assay: The androgen displacement was assessed with the Polar Screen Androgen Receptor Competitor Green Assay Kit as per the instructions of the manufacturer (Lack, Axerio-Cilies et al. 2011).
# The ability of the above chemicals to displace DHT from the ABS site of recombinant wild type LBD was measured using a fluorescent polarization assay (PolarScreen™, Life Technologies) at various concentrations.
# [5] = biological target: T3, full-length human AR (Homo sapiens, UniProt P10275); experiment: ARR3tk-luciferase reporter assay in PC3 cells, wild-type AR; format: cell-based
# T3 construct: expressed in transfected cells; host or cells: PC3 (AR-negative human prostate cancer cells)
# T3 sequence (P10275 1-920): T1 sequence (P10275 1-920 T878A) with A878T
# Procedure: (§1) 9. Transient Transfection: The PC3/MCF7 cells were seeded into a 96-well plate (2,000 cells/well). After 24 hrs, the wild-type AR (50 ng/well)/AR mutants and AR3TK-luciferase plasmids (1:3) were co-transfected into PC3 cells or ERE-luciferase (50 ng/well) was transfected into MCF7 cells using transfection reagent TT20. 24 hrs after the transfection, the cells were treated with the compounds at various concentrations. And 24 hrs later, the cells were lysed and the reading was taken using a luminometer.
# [6] = biological target: T4, T877A-AR mutant (Homo sapiens, UniProt P10275, T878A); experiment: Luciferase reporter assay in PC3 cells, T877A-AR; format: cell-based; conditions: presence and absence of R1881
# T4 construct: expressed in transfected cells; host or cells: PC3
# Procedure: as §1
# [7] = system: endogenous wild type AR; experiment: ARR3tk-luciferase assay in R1-AD1 cells; format: cell-based, human; conditions: 0.1 nM R1881
# [8] = biological target: T5, AR(1-653) truncation mutant (Homo sapiens, UniProt P10275); conditions: 25 μM, PC3 cells, ARR3tk-luciferase; cited from earlier work
# T5 construct: host or cells: PC3 co-transfected with ARR3tk-luciferase
# [9] = biological target: T6, ER-α (Homo sapiens, UniProt P03372); experiment: Estrogen-response element-luciferase assay in MCF-7 cells; format: cell-based
# T6 construct: endogenous in cells; host or cells: MCF-7 with ERE-luciferase reporter
# Procedure: as §1
# [10] = system: PSA; experiment: PSA measurements, LNCaP cells, 1 nM R1881, 2 days; format: cell-based, human
# Procedure: Following the incubation period, 150 μl of the media was taken from each well, and PSA levels were quantified using a Cobas e411 analyzer (Roche Applied Science™) according to the manufacturer's instructions. The same instrument was used to analyze serum PSA from mice during the in vivo analysis.
# [11] = system: FKBP5; experiment: Western blot FKBP5 protein in R1-AD1 cells; format: cell-based, human
# Procedure: (§2) Cell lysates (40 μl) from luciferase assays (96-well plate) were separated on a 10% SDS-polyacrylamide mini gel. Protein was transferred to methanol-charged PVDF membranes and probed with anti-AR441 (mouse, Sigma™) monoclonal primary antibody. Blots were also probed with polyclonal anti-actin (rabbit, Sigma™) to show equal loading and polyclonal anti-PARP/anti-cleaved PARP (rabbit, Sigma™) to test for induction of apoptosis. Lysates from CWR-R1 cells were additionally probed with polyclonal anti-FKBP5 (rabbit, Sigma™) following 2 days of incubation with compounds.
# [12] = system: FKBP5; experiment: Western blot FKBP5 protein in R1-D567 cells; format: cell-based, human
# Procedure: as §2
# [13] = eGFP IC50, LNCaP eGFP cells, 0.1 nM R1881
# T6 sequence (P03372 whole entry): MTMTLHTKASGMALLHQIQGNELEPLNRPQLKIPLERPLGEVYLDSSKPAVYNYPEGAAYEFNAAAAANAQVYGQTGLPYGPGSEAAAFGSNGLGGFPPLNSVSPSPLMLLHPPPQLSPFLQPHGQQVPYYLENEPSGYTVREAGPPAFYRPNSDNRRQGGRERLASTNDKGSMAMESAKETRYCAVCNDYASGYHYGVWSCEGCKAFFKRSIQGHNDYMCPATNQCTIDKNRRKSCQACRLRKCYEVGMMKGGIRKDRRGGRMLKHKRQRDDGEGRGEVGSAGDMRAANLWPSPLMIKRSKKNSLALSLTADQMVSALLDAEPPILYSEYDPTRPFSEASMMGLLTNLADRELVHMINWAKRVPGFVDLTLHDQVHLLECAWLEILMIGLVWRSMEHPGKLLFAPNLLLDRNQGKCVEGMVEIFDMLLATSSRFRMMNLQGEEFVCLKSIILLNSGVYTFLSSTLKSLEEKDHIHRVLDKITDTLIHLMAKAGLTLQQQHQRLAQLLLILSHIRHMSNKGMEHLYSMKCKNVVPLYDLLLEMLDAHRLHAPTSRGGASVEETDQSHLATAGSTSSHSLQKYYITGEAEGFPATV
smiles,measurement,setting,value
COc1c(Cl)cc(-c2csc(N3CCOCC3)n2)cc1Cl [Compound 14288],digestion of AR DBD by trypsin in presence of compound,[1],not digested
same,% Inhibition (3 μM),[2],35.89%
COc1c(F)cccc1-c1csc(N2CCOCC2)n1 [Compound 14368],IC50,[3]; Series 1,130 nM
same,IC50,[4],31300 nM
same,"AR transcription, wild type AR, presence of R1881",[5],inhibited by 14368 in a dose response manner
same,"AR transcriptional activity, wild type AR, absence of androgen",[5],only a basal level of transcriptional activity
same,concentration inducing transcriptional activation of T877A AR mutant,[6],higher than 0.4 μM
same,agonistic effect at high concentrations,[7],not observed
same,AR transcriptional activity in the absence of R1881,[2]; LNCaP eGFP cells without R1881,vigorously enhance AR transcriptional activity
same,IC50,"[2]; eGFP IC50 (μM), Series 1",0.03 µM
same,IC50,[2]; [13],0.035 µM
"c1cc(-c2csc(N3CCOCC3)n2)cs1 [Compound 14404, 4-(4-(thiophen-3-yl)thiazol-2-yl)morpholine]",IC50,[3]; Series 1,220 nM
same,Androgen Displacement IC50,[4],No displacement
same,anti-AR activity (AR transcriptional inhibition) in words,[2]; LNCaP (T877A AR),maintained good potency
same,partial agonistic effect,[2]; LNCaP eGFP cells,no undesired partial agonistic effect
same,IC50,"[2]; eGFP IC50 (μM), Series 1",0.26 µM
same,IC50,[2]; [13],0.27 ± 0.02 µM
CC(C)(c1ccc(OCC(O)CO)cc1)c1ccc(OCC(O)CCl)cc1 (stereo not drawn) [EPI-001],inhibition of AR(1-653) truncation mutant,[8],~80%
"CNC(=O)c1ccc(N2C(=S)N(c3ccc(C#N)c(C(F)(F)F)c3)C(=O)C2(C)C)cc1F [enzalutamide, reference compound]",IC50,"[3]; LNCaP eGFP cells, R1881, secreted PSA",120 nM
same,effect on ER transcriptional activity,[9],considerable cross-reactivity
same,IC50 secreted PSA,[10],sub-micromolar
same,"FKBP5 protein expression, R1-AD1 cells",[11],only affected R1-AD1 cells
same,"FKBP5 protein expression, R1-D567 cells",[12],only affected R1-AD1 cells

# Reference: patent publication US10011573B2, “Human androgen receptor DNA-binding domain (DBD) compounds as therapeutics and methods for their use” (The University of British Columbia, priority 2014, dated 2018)
